The record followed here is patent US12454511B2, “6-methoxy-3,4-dihydro-1H-isoquinolin compounds” (Eli Lilly and Company, priority 2020, dated 2025).

Where a name gives a salt, the structure may show the parent alone.

Assay [1] concerns the target T1, human GIPR (Homo sapiens, UniProt P48546).
T1 construct: expressed in transfected cells; host or cells: HEK293 clonal cell line
T1 sequence (P48546 22-466): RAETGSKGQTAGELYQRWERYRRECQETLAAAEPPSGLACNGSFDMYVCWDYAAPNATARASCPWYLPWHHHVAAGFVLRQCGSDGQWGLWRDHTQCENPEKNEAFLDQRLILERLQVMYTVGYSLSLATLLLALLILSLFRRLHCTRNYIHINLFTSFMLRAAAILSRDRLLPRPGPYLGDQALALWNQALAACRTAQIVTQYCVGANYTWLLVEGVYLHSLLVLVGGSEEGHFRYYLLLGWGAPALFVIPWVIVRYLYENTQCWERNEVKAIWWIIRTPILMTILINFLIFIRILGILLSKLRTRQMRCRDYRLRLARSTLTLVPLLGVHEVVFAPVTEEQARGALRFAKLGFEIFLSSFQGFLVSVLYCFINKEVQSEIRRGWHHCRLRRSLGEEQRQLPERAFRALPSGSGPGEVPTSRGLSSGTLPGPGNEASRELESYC
Put plainly: Human GIP Receptor Potentiator Assay (cAMP formation, HTRF, in presence of EC20 dose of GIP(1-42)). In kind it is cell-based. The following applies: HEK293 GIPR cell line intracellular cAMP response, with 25 pM GIP(1-42); for Emax: percent top of maximal response; for EC50: relative EC50, read-out: EC50 (nM) and SEM (n). The method, then: Human GIP Receptor Potentiator Assay
GIP Receptor (GIPR) functional activity is determined using cAMP formation in an HEK293 clonal cell line expressing human GIPR (NCBI accession number NP_000155). […] The hGIPR receptor expressing cells are treated with 25 pM of GIP(1-42) (Labcyte Echo direct dilution) and a dose response of test compound (10 point concentration-response curve in DMSO, 3-fold Labcyte Echo direct dilution, 384 well plate Corning Cat #3570) in DMEM (Gibco Cat #31053) supplemented with 1× GlutaMAX™ (Gibco Cat #35050), 0.1% bovine casein (Sigma C4765-10ML), 250 μM IBMX (3-Isobutyl-1-methylxanthine, Acros Cat #228420010) and 20 mM HEPES (Gibco Cat #15630) in a 20 μL assay volume (final DMSO concentration is 1.0%). After a 30 min incubation at 37° C., the resulting increase in intracellular cAMP is quantitatively determined using the CisBio cAMP Dynamic 2 HTRF Assay Kit (62AM4PEJ). Briefly, cAMP levels within the cell are detected by adding the cAMP-d2 conjugate in cell lysis buffer (10 μL) followed by the antibody anti-cAMP-Eu^3+-Cryptate, also in cell lysis buffer (10 μL). The resulting competitive assay is incubated for at least 60 min at room temperature, then detected using a PerkinElmer Envision® instrument with excitation at 320 nm and emission at 665 nm and 620 nm. Envision units (emission at 665 nm/620 nm*10,000) are inversely proportional to the amount of cAMP present and are converted to nM cAMP per well using a cAMP standard curve. The amount of cAMP generated (nM) in each well is converted to a percent of the maximal response observed. A relative EC50 value and percent top (Emax) are derived by non-linear regression analysis using the percent maximal response vs. the concentration of compound added, fitted to a four-parameter logistic equation. The EC50 and Emax data when the compounds of Examples 1 and 3 are tested in the cAMP assay described above are shown in Table 1.
In general terms: Changes in cAMP serve as a functional read-out for many G protein-coupled receptors.

For assay [2], the target named is T2, human GLP-1R (Homo sapiens, UniProt P43220).
T2 construct: expressed in transfected cells; host or cells: HEK293 clonal cell line
T2 sequence (P43220 24-463): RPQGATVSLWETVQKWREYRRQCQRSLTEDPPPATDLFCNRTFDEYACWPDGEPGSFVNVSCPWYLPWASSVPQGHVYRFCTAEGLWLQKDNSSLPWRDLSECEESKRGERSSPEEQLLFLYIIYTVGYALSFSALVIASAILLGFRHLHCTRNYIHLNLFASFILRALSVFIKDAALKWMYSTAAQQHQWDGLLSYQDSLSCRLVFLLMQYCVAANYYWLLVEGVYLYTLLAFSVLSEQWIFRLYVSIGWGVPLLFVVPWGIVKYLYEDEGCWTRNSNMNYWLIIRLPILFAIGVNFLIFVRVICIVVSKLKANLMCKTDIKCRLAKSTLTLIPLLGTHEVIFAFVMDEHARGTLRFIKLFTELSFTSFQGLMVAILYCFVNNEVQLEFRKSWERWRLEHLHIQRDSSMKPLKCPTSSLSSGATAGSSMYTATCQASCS
Briefly: Human GLP-1 Receptor Potentiator Assay (cAMP formation, HTRF, in presence of EC20 dose of oxyntomodulin). Conditions: HEK293 GLP-1R cell line intracellular cAMP response, with 5 nM oxyntomodulin. The format is cell-based. Here is the method: Human GLP-1 Receptor Potentiator Assay
GLP-1 Receptor (GLP-1R) functional activity is determined using cAMP formation in an HEK293 clonal cell line expressing human GLP-1R (NCBI accession number NP_002053). […] After 60 min incubation at room temperature, the resulting increase in intracellular cAMP is quantitatively determined using a custom CisBio cAMP Hybrid HTRF Assay Kit (60MISZZZ). Briefly, cAMP levels within the cell are detected by adding the Dynamic 2 cAMP-d2 conjugate in cell lysis buffer (10 μL) followed by the HiRange antibody anti-cAMP-Eu^3+-Cryptate, also in cell lysis buffer ([…]). The resulting competitive assay is incubated for at least 60 min at RT, then detected using a PerkinElmer Envision® instrument with excitation at 320 nm and emission at 665 nm and 620 nm. […]

For orientation: Emax means the size of the effect at its maximum, as opposed to the concentration needed. Broadly, the EC50 is the concentration needed to bring the measured effect to its halfway point. For `COc1ccc2c(c1-c1cc(F)c(O)c(NCC(C)C)c1)CCN(C(C)c1ccc(C(C)C)cc1)[C@@H]2C` (single isomer, unassigned) [Example 1, dihydrochloride], in assay [1], the maximum response (Emax) is 101 ± 7% and the concentration for a half-maximal effect (EC50) was 11.9 nM.
As for `COc1ccc2c(c1-c1cc(C)c(O)c(F)c1)CCN(C(C)c1ccc(C(C)C)cc1)[C@@H]2C` (single isomer, unassigned) [Example 3, hydrochloride], in assay [1], the Emax is 91 ± 8% and the EC50 was determined as 37.5 nM.
As for `COCC1Cc2c(ccc(OC)c2-c2ccc(O)c(C)c2)CN1Cc1ccc(C(C)C)cc1O` (single isomer, unassigned) [Example 2, 4-[2-[(2-Hydroxy-4-isopropyl-phenyl)methyl]-6-methoxy-3-(methoxymethyl)-3,4-dihydro-1H-isoquinolin-5-yl]-2-methyl-phenol; hydrochloride], the Emax in assay [2] (percent top of maximal response) is 181 ± 35%. In addition, the EC50 in assay [2] (relative EC50, read-out: EC50 (nM) and SEM (n)) turned out to be 15.7 nM.
